Laboratory results from ChEMBL document CHEMBL1147973, “Ligand based virtual screening and biological evaluation of inhibitors of chorismate mutase (Rv1885c) from Mycobacterium tuberculosis H37Rv” (Bioorg Med Chem Lett, 2007).

biological target: T1, Secreted chorismate mutase (Mycobacterium tuberculosis, UniProt P9WIB9); experiment: Inhibition of chorismate mutase in Mycobacterium tuberculosis H37Rv strain
T1 sequence (P9WIB9 whole entry): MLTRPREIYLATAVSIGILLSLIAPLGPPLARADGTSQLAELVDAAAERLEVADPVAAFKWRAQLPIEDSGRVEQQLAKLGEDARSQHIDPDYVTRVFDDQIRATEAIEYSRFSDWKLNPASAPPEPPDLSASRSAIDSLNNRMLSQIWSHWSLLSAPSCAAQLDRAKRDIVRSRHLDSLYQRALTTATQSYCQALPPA

Row | SMILES | Ki [µM]
1 | COc1cc(/C=C(\C(=O)O)c2ccc(Cl)cc2)c([N+](=O)[O-])cc1OC | 17.7
2 | CC(C)CC(NC(=O)C1CSC(c2ccccc2)N1C(=O)OC(C)(C)C)C(=O)O (centres undefined) | 21.1
3 | CNc1ccc(C(=O)OC)cc1[N+](=O)[O-] | 28.8
4 | COc1ccc(CCNc2c([N+](=O)[O-])cc(C(=O)O)cc2S(N)(=O)=O)cc1OC | 5.7
